The values below come from US12202790B2, “Sulfonamide derivatives having selective Nox inhibiting activity” (GLUCOX BIOTECH AB, priority 2018, dated 2025).

The target of one data set is Nox2 (Homo sapiens (Human), UniProt P04839). The experiment in a line: Nox2 inhibition in human neutrophils, isoluminol-dependent chemiluminescence. It counts as cell-based. Set-up: key to IC50 Nox2: The sign “—” stands for “inactive”. The conditions noted are these: PMA stimulated human neutrophils. The protocol: (§1) HEK293 overexpressing Nox4 (CJ Nox4) cells were purchased from Redoxis, Lund, Sweden. HEK 293 cells expressing Nox5, Nox3 (HEK TRex) and CHO cells expressing Nox1, were a kind gift from Vincent Jaque Center Medical Universitaire, Geneva, Switzerland. Nox2 expressed in isolated neutrophils were isolated from whole blood (human), as previously described (Anvari E, et al., Free Radic Res 2015; 49:1308-1318).
Compounds of the invention were tested for selectivity against Nox2 in isolated neutrophils from whole blood (human), as previously described (Anvari E, et al., vide supra). Levels of ROS from PMA stimulated primary human neutrophils were measured using isoluminol-dependent chemiluminescence. […] The dye is excited by ROS and the light emitted when the excited molecules return to the ground state, relative to the amount of released ROS, is measured. This reaction is catalyzed and amplified by peroxidases. […] Compounds of the invention and GKT136901 were diluted at 4× working concentration and titrated from 100 μM to 0.006 μM in 1:4 steps as final concentrations. DPI was diluted in isoluminol buffer at 4× working concentration titrated from 10 μM to 0.0006 μM as final concentrations. PMA was diluted in isoluminol buffer at 4× working concentration for a final concentration of 30 ng/ml. […] Luminescence was detected using FluoStar Optima (BMG, Labtech). The isoluminol buffer was prepared immediately prior to addition to test plate. The buffer contained HRP fraction with or without PMA (30 ng/ml). Stock solutions at 6 μg/ml (PMA in HBSS), 3 μg/ml (PMA in DMSO) and 24 mM (DPI) were used and further diluted at the day of analysis to 4× working concentrations in HBSS with or without DMSO.

Another data set is described as follows: DPPH redox assay. The conditions noted are these: redox activity control. Also noted: key: The sign “—” stands for “inactive”. The protocol:
DPPH, a well-known sensitive chemical of monitoring reactions involving radicals described by Xiong Q, et al., Biol Pharm Bull 1996; 19:1580-1585, was used as control to exclude any redox active compound. DPPH was incubated with decreasing concentrations (200-0.003 μM) of compounds of the invention or prior art compound GKT136901 (as a positive control). The plate was kept in the dark for 60 min, after which the absorbance of the solution was measured at 518 nm.
In general terms: The DPPH test is a chemical assay of radical scavenging.

The target in a further data set is Nox1 (Homo sapiens (Human), UniProt Q9Y5S8). The data set is described as follows: Amplex Red assay of Nox1 expressing CHO cells. Type of data set: cell-based. Set-up: key to IC50 Nox1: The sign “—” stands for “inactive”. As for the experimental part: as §1
CHO cells expressing Nox1 were cultured in DMEM 12 medium (DMEM/F12) supplemented with FBS (10%), penicillin (100 U/ml) and streptomycin (100 μg/ml) at 37° C. in air with 5% CO2.
(§2) Reactive oxygen produced in whole cells or in membrane preparation of Nox1, Nox3, Nox4, Nox5 and xanthine oxidase and glucose oxidase were determined using Amplex Red as detection probe of formed H2O2. Amplex Red (10-acetyl-3,7-dihydroxyphenoxazine) in combination with HRP and co-factors reacts with H2O2 in a 1:1 stoichiometry to form a highly fluorescent resorufin excitated at 544 nm producing emission at 590 nm.
(§3) Adherent cells (CHO, HEK) were collected by trypsinization, centrifuged, washed with HBSS, counted, and resuspended in HBSS. Cells were seeded in 96-well black flat bottom plates at a density of 50,000-100,000 cells/well. All compounds were dissolved in DMSO and concentrations ranging from 0.003 to 200 μM were tested in Nox cellular assays with a final concentration of DMSO of 1%. Cells were incubated at 37° C. with the compounds for 30 minutes before measurement. Cells expressing Nox1 and Nox2 were activated with the PKC activator PMA (0.1 μM). Nox5 was activated with the Ca2+ ionophore ionomycin (1 μM) and further enforced with PMA. The CJ HEK 293 cells overexpressed Nox4 constitutively. In the HTS screen HEK 293 TRex was used and tetracycline ([…]) was added 18 h before measurement to induce Nox4 expression. Production of hydrogen peroxide by Nox in intact cells was measured using Amplex Red fluorescence as described by Jaquet V, et al., Br J Pharmacol 2011; 164:507-520. Assay reagents including HRP ([…]) and Amplex Red (50 μM) were added to initiate production of hydrogen peroxide. Fluorescence was read in a fluorescence plate reader at 37° C. every minute between 30-60 minutes.

The target of the next data set is hNox4 (Homo sapiens (Human), UniProt Q9NPH5). The experiment in a line: Amplex Red assay of intact Nox4 expressing HEK293 cells. It counts as cell-based. The protocol: as §1
HEK293 cells (CJ Nox4) were cultured in RPMI 1640 with Glutamax supplemented with FBS (10%), penicillin (100 U/ml) and streptomycin […] at 37° C. in air with 5% CO2. Every third passage 200 µg/ml neomycin were supplied in growth medium as selective agent.
as §2, §3

Data set [1] can be described thus: Plasma protein binding, mouse. Type of data set: in vitro ADME. The conditions noted are these: 10 μM in plasma, equilibrium dialysis 4 h, read-out: fu % mouse plasma protein. As for the experimental part:
(§4) Example compounds were incubated at 10 μM in plasma and then equilibrium dialysed for 4 h, using a rapid equilibrium device. Protein binding (fu %) was determined by LS/MS as previously described (Anvari E, et al., vide supra).
On the technique in general: In equilibrium dialysis free small molecules cross a membrane that holds back macromolecules.

Data set [2] can be described thus: Microsomal metabolic stability, mouse. It counts as in vitro ADME. The conditions noted are these: pooled liver microsomes, pH 7.4, read-out: Metab. stab, mouse t1/2. As for the experimental part:
(§5) The microsomal metabolic stability assay utilizes pooled human, or animal (mouse) species, liver microsomes with supplemented cofactor (NADPH) to primarily facilitate cytochrome P450 (CYP) reactivity against target compound. Test compound (1 μM incubation concentration) and microsomes (0.5 mg/ml incubation concentration) were diluted in 0.1 M phosphate buffer, pH 7.4, in a volume of 150 μl. The reaction was initiated with addition of NADPH (1 mM). The incubation times were 0, 5, 15, 40 min and the reaction was quenched, at each time point, by addition of 100 μl acetonitrile containing Warfarin as IS. The plate was then sealed, centrifuged and frozen at −20 C until LC-MS/MS analysis.
A general note: Liver microsomes are a subcellular fraction often used to study metabolism.

Data set [3] is described as follows: Plasma protein binding, human. It counts as in vitro ADME. The conditions noted are these: 10 μM in plasma, equilibrium dialysis 4 h, read-out: fu % human plasma protein. The protocol:
as §4

Data set [4] in a line: Microsomal metabolic stability, human. It counts as in vitro ADME. The settings on record: pooled liver microsomes, pH 7.4, read-out: Metab. stab, human t1/2. The protocol: as §5
The mark [5] stands for this setting: read-out: IC50 on hNox4 in recombinant cells.

Like-named read-outs stand apart in the source and are kept apart here.

Sequence of hNox4 (Q9NPH5 whole entry): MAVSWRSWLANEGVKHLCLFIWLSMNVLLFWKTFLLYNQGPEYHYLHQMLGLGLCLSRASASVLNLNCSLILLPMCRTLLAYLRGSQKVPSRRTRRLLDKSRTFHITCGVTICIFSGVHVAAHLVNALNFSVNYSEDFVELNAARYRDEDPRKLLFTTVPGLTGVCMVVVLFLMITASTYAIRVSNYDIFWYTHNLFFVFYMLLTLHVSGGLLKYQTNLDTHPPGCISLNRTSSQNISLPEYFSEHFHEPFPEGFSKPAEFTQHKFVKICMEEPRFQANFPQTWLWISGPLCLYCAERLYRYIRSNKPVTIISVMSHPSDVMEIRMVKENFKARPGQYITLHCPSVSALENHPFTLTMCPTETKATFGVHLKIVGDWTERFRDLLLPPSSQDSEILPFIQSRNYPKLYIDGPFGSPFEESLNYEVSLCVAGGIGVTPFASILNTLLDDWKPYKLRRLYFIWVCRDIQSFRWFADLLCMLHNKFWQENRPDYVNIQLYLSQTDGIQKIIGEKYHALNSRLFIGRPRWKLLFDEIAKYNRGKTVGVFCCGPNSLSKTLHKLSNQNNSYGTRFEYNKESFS
Sequence of hNox4 (P13498 2-195 partner): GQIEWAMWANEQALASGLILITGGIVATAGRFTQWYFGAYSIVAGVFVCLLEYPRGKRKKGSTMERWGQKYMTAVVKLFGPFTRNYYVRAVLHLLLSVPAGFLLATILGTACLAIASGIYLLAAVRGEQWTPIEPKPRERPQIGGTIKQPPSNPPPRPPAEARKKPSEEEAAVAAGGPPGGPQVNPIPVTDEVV
Sequence of Nox2 (P04839 2-570): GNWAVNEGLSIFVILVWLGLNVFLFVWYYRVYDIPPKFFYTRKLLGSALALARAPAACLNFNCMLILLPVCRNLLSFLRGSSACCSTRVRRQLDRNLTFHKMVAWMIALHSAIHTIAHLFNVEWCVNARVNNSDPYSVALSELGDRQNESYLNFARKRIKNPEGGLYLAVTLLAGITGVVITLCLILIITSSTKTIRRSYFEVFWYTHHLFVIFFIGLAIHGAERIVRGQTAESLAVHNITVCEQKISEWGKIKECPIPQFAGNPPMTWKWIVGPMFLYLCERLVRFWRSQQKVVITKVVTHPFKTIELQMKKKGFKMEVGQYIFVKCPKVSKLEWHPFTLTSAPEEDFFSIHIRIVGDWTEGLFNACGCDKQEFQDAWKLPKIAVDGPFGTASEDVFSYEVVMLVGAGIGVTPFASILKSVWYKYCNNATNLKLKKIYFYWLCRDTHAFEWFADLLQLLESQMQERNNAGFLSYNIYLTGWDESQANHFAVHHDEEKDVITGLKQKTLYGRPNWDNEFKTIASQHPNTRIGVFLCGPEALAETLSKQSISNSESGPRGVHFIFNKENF
Sequence of Nox2 (P13498 2-195 partner): as the sequence (P13498 2-195 partner) above
Sequence of Nox1 (Q9Y5S8 whole entry): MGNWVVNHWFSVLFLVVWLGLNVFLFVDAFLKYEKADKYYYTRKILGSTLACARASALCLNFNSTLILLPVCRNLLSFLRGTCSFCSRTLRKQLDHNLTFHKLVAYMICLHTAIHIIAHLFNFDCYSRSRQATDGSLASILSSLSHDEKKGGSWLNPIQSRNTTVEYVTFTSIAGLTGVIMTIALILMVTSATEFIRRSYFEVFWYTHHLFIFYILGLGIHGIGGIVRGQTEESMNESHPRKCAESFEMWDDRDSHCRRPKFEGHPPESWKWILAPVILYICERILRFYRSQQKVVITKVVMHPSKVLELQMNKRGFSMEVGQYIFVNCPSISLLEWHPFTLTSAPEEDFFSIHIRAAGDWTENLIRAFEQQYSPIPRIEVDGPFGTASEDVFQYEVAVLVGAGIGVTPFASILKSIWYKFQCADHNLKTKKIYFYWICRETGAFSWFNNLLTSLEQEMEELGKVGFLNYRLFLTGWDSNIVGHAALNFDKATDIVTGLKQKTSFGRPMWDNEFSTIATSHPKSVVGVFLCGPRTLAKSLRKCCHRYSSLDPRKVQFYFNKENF
Sequence of Nox1 (P13498 2-195 partner): as the sequence (P13498 2-195 partner) above

One may read the IC50 as the concentration that gives 50% inhibition. Regarding `O=S(=O)(NCCc1ccccc1Cl)c1c(Cl)cc(C2CC2)cc1Cl` [Example 26, 2,6-dichloro-N-[2-(2-chlorophenyl)ethyl]-4-cyclopropylbenzene-1-sulfonamide], the “IC50 Nox2” value against Nox2 is given as “—”. For the same compound, in “DPPH redox assay”, the “IC50 DPPH” value is on record as “—”. For the same compound, on Nox1, the “IC50 Nox1” value is “—”. Also, the IC50 on hNox4 (read-out: IC50 Nox4) and at hNox4 (setting [5]) was 360 nM each time.

With `COc1cc(C)c(S(=O)(=O)NCCc2ccccc2Cl)c(C)c1` [Example 46, N-[2-(2-chlorophenyl)ethyl]-4-methoxy-2,6-dimethyl-benzenesulfonamide], the “IC50 Nox2” value on Nox2 is “—”. In addition, the fraction unbound at 4 h, 10 μM in data set [1] stood at 0.0021; in data set [3], 0.0026. For the same compound, the half-life at 1 μM in data set [2] and in data set [4] was 2 min in each case. In the data set “DPPH redox assay”, the “IC50 DPPH” value is given as “—”. The “IC50 Nox1” value at Nox1 was “—”. The IC50 on hNox4 (read-out: IC50 Nox4) stood at 300 nM.

For `COc1cc(C)c(S(=O)(=O)NCCc2ccccc2O)c(C)c1` [Example 47, N-[2-(2-hydroxyphenyl)ethyl]-4-methoxy-2,6-dimethyl-benzenesulfonamide], the IC50 against Nox2 was 1000 nM; at hNox4 (read-out: IC50 Nox4), 1600 nM. The fraction unbound at 4 h, 10 μM in data set [1] is 0.017; in data set [3] it was 0.03. Besides, the half-life at 1 μM in data set [2] came out at 1 min; in data set [4], 14 min. Besides, the “IC50 DPPH” value in the data set “DPPH redox assay” is recorded as “—”. For the same compound, the “IC50 Nox1” value on Nox1 is listed as “—”.

In the case of `O=S(=O)(NCCc1ccccc1O)c1c(Cl)cc(Br)cc1Cl` [Example 38, 4-bromo-2,6-dichloro-N-[2-(2-hydroxyphenyl)ethyl]benzenesulfonamide], the IC50 against Nox2 stood at 1500 nM; on hNox4 (read-out: IC50 Nox4) it was 300 nM. Moreover, the fraction unbound at 4 h, 10 μM in data set [1] worked out at 0.0056; in data set [3], 0.0062. Besides, the half-life at 1 μM is 2 to 4 min in data set [2] and 9 to 11 min in data set [4]. Besides, the “IC50 DPPH” value in “DPPH redox assay” is given as “—”. Also, the “IC50 Nox1” value on Nox1 is given as “—”.

On to `Cc1cc(C)c(S(=O)(=O)NCCc2ccccc2O)c(C)c1` [Example 37, N-[2-(2-hydroxyphenyl)ethyl]-2,4,6-trimethylbenzene-1-sulfonamide], for which the IC50 at Nox2 is 900 nM; on hNox4 (read-out: IC50 Nox4), 800 nM. Moreover, the figures for the fraction unbound at 4 h, 10 μM in data set [1] and in data set [3] were 0.0056 and 0.011, respectively. Further, the half-life at 1 μM was in the range of 2 to 4 min in data set [2] and 6 to 10 min in data set [4]. For the same compound, in the data set “DPPH redox assay”, the “IC50 DPPH” value is “—”. The “IC50 Nox1” value at Nox1 was “—”.

As to `Cc1cc(O)cc(C)c1S(=O)(=O)NCCc1ccccc1O` [Example 48, 4-hydroxy-N-[2-(2-hydroxyphenyl)ethyl]-2,6-dimethyl-benzenesulfonamide], the IC50 at Nox2 was 870 nM; at hNox4 (read-out: IC50 Nox4), 22000 nM. Moreover, the fraction unbound at 4 h, 10 μM was 0.005 in data set [1] and 0.011 in data set [3]. Also, the half-life at 1 μM in data set [2] was 16 min; in data set [4], 69 min. Moreover, the “IC50 DPPH” value in the data set “DPPH redox assay” was “—”. Moreover, the “IC50 Nox1” value on Nox1 is “—”.

Turning to `Cc1ccccc1CCNS(=O)(=O)c1c(Cl)cc(Br)cc1Cl` [Example 17, 4-bromo-2,6-dichloro-N-[2-(2-methylphenyl)ethyl]benzene-1-sulfonamide], the “IC50 Nox2” value against Nox2 is “—”. The fraction unbound at 4 h, 10 μM in data set [1] is 0.0004; in data set [3] it was 0.0002. The half-life at 1 μM was 2 to 3 min in data set [2] and 3 to 4 min in data set [4]. The “IC50 DPPH” value in “DPPH redox assay” was “—”. Also, the “IC50 Nox1” value at Nox1 is “—”. Besides, the IC50 on hNox4 (read-out: IC50 Nox4) and at hNox4 (setting [5]) was 270 nM each time.

With `Cc1ccccc1CCNS(=O)(=O)c1c(C)cccc1Cl` [Example 11, 2-chloro-6-methyl-N-[2-(2-methylphenyl)ethyl]benzene-1-sulfonamide], the “IC50 Nox2” value at Nox2 is “—”. Moreover, in “DPPH redox assay”, the “IC50 DPPH” value is “—”. In addition, the “IC50 Nox1” value at Nox1 was “—”. Further, the IC50 on hNox4 (read-out: IC50 Nox4) and at hNox4 (setting [5]) was 2400 nM in each case.

Turning to `Cc1ccccc1C(F)CNS(=O)(=O)c1c(Cl)cc(Br)cc1Cl` (racemic) [Example 35, 4-bromo-2,6-dichloro-N-[2-fluoro-2-(2-methylphenyl)ethyl]benzene-1-sulfonamide], the “IC50 Nox2” value on Nox2 is “—”. Further, the fraction unbound at 4 h, 10 μM in data set [1] and in data set [3] was 0.0002 each time. Also, the half-life at 1 μM in data set [2] lay in the range of 6 to 20 min; in data set [4], 11 to 13 min. In addition, the “IC50 DPPH” value in “DPPH redox assay” is on record as “—”. Moreover, the “IC50 Nox1” value at Nox1 is reported as “—”. Moreover, at hNox4 (read-out: IC50 Nox4), the IC50 stood at 1700 nM.

For `Cc1cc(Cl)c(S(=O)(=O)NCCc2ccccc2O)c(C)c1O` [Example 44, 6-chloro-3-hydroxy-N-[2-(2-hydroxyphenyl)ethyl]-2,4-dimethyl-benzenesulfonamide], the IC50 against Nox2 came out at 900 nM; on hNox4 (read-out: IC50 Nox4), 2400 nM. For the same compound, the fraction unbound at 4 h, 10 μM in data set [1] turned out to be 0.025; in data set [3], 0.015. The half-life at 1 μM amounted to 7 min in data set [2] and 36 min in data set [4]. Besides, the “IC50 DPPH” value in “DPPH redox assay” is “—”. For the same compound, the “IC50 Nox1” value on Nox1 is on record as “—”.
